Earlier results as cited in patent US20070092586A1, “Compositions and methods for the administration psychotropic drugs which modulate body weight” (Alamo Pharmaceuticals, priority 2005, published 2007).

Key:
[1] = lithium maintenance therapy; J. Clin. Psychopharmacol. 1988

| Structure (SMILES) | increase in body weight (mean) (59 patients taking clozapine for an unstated period, P<0.05, Gerlach et al. 1989) [kg] | mean increase in body weight (over 21 months, patients who responded to clozapine and remained clinically stable, Jalenques et al. 1996) [kg] | patients with weight gains of over 10 kg [1] [%] |
| --- | --- | --- | --- |
| CN1CCN(C2=Nc3cc(Cl)ccc3Nc3ccccc32)CC1 [clozapine, 8-chloro-11-(4-methyl-1-piperazinyl)-5H-dibenzo[b,e] [1,4] diazepine] | 2.8 | 12.4 | – |
| O=C([O-])[O-].[Li+].[Li+] [lithium] | – | – | 20 |
